The record followed here is US10766869B2, “Triazoles for the treatment of demyelinating dieases” (Vertex Pharmaceuticals Incorporated, priority 2015, dated 2020).

The subject of the test is primary rat mixed cortical cells. Briefly: In vitro myelination assay (MBP positive myelin strands, fold myelin pixels above background). It is filed as cell-based. As to conditions: Rattus norvegicus, read-out: Fold myelin pixels above background relative to baseline of no added compound; for fold induction at 1 µM: 1.0 μM compound; for fold induction at 10 µM: 10.0 μM compound. In short, it runs like this: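 Compounds at 1.0 and 10.0 μM were incubated 14 days with dissociated P1 rat cortical cells, which were then fixed and immunostained for MBP. Myelination was scored as fold MBP myelin pixels per well over the no-compound baseline.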

In the case of `Cc1cc(Nc2ncn(-c3cc(F)cc(F)c3)n2)cc(N2CCC(CN3CCOCC3)CC2)c1` [Compound 984, 1-(3,5-difluorophenyl)-N-[3-methyl-5-[4-(morpholinomethyl)-1-piperidyl]phenyl]-1,2,4-triazol-3-amine], the fold induction at 1 µM was in the range of 10 to 100 and the fold induction at 10 µM was at most 1.
For `CCC(CNc1cc(C)cc(Nc2ncn(-c3cc(F)cc(F)c3)n2)c1)N1CCOCC1` (stereo not shown) [Compound 985, N3-[1-(3,5-difluorophenyl)-1,2,4-triazol-3-yl]-5-methyl-N1-(2-morpholinobutyl)benzene-1,3-diamine] the same measures were 1 to 10 and 1 to 10.
Taken in the same sequence, the figures for `Cc1cc(Nc2ncn(-c3cc(F)cc(F)c3)n2)cc(N2CC[C@H](N3CCCC3)C2)c1` [Compound 986, 1-(3,5-difluorophenyl)-N-[3-methyl-5-[(3S)-3-pyrrolidin-1-ylpyrrolidin-1-yl]phenyl]-1,2,4-triazol-3-amine] were 1 to 10 and at most 1.
Taken in the same sequence, the figures for `CCN(CC)CCN1CCN(c2cc(C)cc(Nc3ncn(-c4cc(F)cc(F)c4)n3)c2)CC1` [Compound 987, N-[3-[4-[2-(diethylamino)ethyl]piperazin-1-yl]-5-methyl-phenyl]-1-(3,5-difluorophenyl)-1,2,4-triazol-3-amine] were 1 to 10 and at most 1.
Consider `Cc1cc(Nc2ncn(-c3cc(F)cc(F)c3)n2)cc(N2CCC(N3CCOCC3C)CC2)c1` (stereo not shown) [Compound 988, 1-(3,5-difluorophenyl)-N-[3-methyl-5-[4-(3-methylmorpholin-4-yl)-1-piperidyl]phenyl]-1,2,4-triazol-3-amine], for which the fold induction at 1 µM lay in the range of 10 to 100 and the fold induction at 10 µM lay within 1 to 10.
Taken in the same sequence, the figures for `Cc1cc(Nc2ncn(-c3cc(F)cc(F)c3)n2)c(F)c(N2CCN(C(CO)CO)CC2)c1` [Compound 989, 2-[4-[3-[[1-(3,5-difluorophenyl)-1,2,4-triazol-3-yl]amino]-2-fluoro-5-methyl-phenyl]piperazin-1-yl]propane-1,3-diol] were at most 1 and at most 1.
For `Cc1cc(Nc2ncn(-c3cc(F)cc(F)c3)n2)cc(N2CCN(CCCO)CC2)c1` [Compound 990, 3-[4-[3-[[1-(3,5-difluorophenyl)-1,2,4-triazol-3-yl]amino]-5-methyl-phenyl]piperazin-1-yl]propan-1-ol] the same measures were at most 1 and at most 1.
For `Cc1cc(Nc2ncn(-c3cc(F)cc(F)c3)n2)cc(N2CCN(C(=O)C3CCOCC3)CC2)c1` [Compound 991, [4-[3-[[1-(3,5-difluorophenyl)-1,2,4-triazol-3-yl]amino]-5-methyl-phenyl]piperazin-1-yl]-tetrahydropyran-4-yl-methanone], the fold induction at 1 µM fell in the range of 10 to 100 and the fold induction at 10 µM lay in the range of 1 to 10.
For `Cc1cc(Nc2ncn(-c3cc(F)cc(F)c3)n2)cc(NC2CCN(CC(F)F)CC2)c1` [Compound 992, N1-[1-(2,2-difluoroethyl)-4-piperidyl]-N3-[1-(3,5-difluorophenyl)-1,2,4-triazol-3-yl]-5-methyl-benzene-1,3-diamine] the same measures were 1 to 10 and 1 to 10.
For `Cc1cc(NCC(=O)N2CCCC2)cc(Nc2ncn(-c3cc(F)cc(F)c3)n2)c1` [Compound 993, 2-[3-[[1-(3,5-difluorophenyl)-1,2,4-triazol-3-yl]amino]-5-methyl-anilino]-1-pyrrolidin-1-yl-ethanone], the fold induction at 1 µM lay in the range of 1 to 10 and the fold induction at 10 µM was in the range of 10 to 100.
For `[2H]C1([2H])N(c2cc(C)cc(Nc3ncn(-c4cc(F)cc(F)c4)n3)c2)C([2H])([2H])C([2H])([2H])N(C2CCC2)C1([2H])[2H]` [Compound 994, N-[3-(4-cyclobutyl-2,2,3,3,5,5,6,6-octadeuterio-piperazin-1-yl)-5-methyl-phenyl]-1-(3,5-difluorophenyl)-1,2,4-triazol-3-amine] the same measures were 1 to 10 and 1 to 10.
For `Cc1cc(Nc2ncn(-c3cc(F)cc(F)c3)n2)cc(N2CCN(CC(C)O)CC2)c1` (stereo not shown) [Compound 995, 1-[4-[3-[[1-(3,5-difluorophenyl)-1,2,4-triazol-3-yl]amino]-5-methyl-phenyl]piperazin-1-yl]propan-2-ol] the same measures were 10 to 100 and at most 1.
For `CCN1CC2CC1CN2c1cc(C)cc(Nc2ncn(-c3cc(F)cc(F)c3)n2)c1` (stereo not shown) [Compound 996, 1-(3,5-difluorophenyl)-N-[3-(5-ethyl-2,5-diazabicyclo[2.2.1]heptan-2-yl)-5-methyl-phenyl]-1,2,4-triazol-3-amine] the same measures were 1 to 10 and at most 1.
Turning to `[2H]C1(N2C([2H])([2H])C([2H])([2H])N(c3cc(C)cc(Nc4ncn(-c5cc(F)cc(F)c5)n4)c3)C([2H])([2H])C2([2H])[2H])COC1` [Compound 997, 1-(3,5-difluorophenyl)-N-[3-methyl-5-[2,2,3,3,5,5,6,6-octadeuterio-4-(3-deuteriooxetan-3-yl)piperazin-1-yl]phenyl]-1,2,4-triazol-3-amine], the fold induction at 1 µM lay in the range of 100 to 1000 and the fold induction at 10 µM is at most 1.
Taken in the same sequence, the figures for `Cc1cc(Nc2ncn(-c3ccc(F)c(F)c3)n2)c(F)c(N2CCN(C3COC3)CC2)c1` [Compound 998, 1-(3,4-difluorophenyl)-N-[2-fluoro-5-methyl-3-[4-(oxetan-3-yl)piperazin-1-yl]phenyl]-1,2,4-triazol-3-amine] were 10 to 100 and 1 to 10.
Regarding `Cc1cc(Nc2ncn(-c3cc(F)cc(F)c3)n2)nc(OC2CCCOC2)c1` (stereo not shown) [Compound 999, N-[1-(3,5-difluorophenyl)-1,2,4-triazol-3-yl]-4-methyl-6-tetrahydropyran-3-yloxy-pyridin-2-amine], the fold induction at 1 µM lay within 1 to 10 and the fold induction at 10 µM was at most 1.
As for `COCCCCN1CCN(c2cc(C)cc(Nc3ncn(-c4cc(F)cc(F)c4)n3)c2)CC1` [Compound 1001, 1-(3,5-difluorophenyl)-N-[3-[4-(4-methoxybutyl)piperazin-1-yl]-5-methyl-phenyl]-1,2,4-triazol-3-amine], the fold induction at 1 µM is 10 to 100 and the fold induction at 10 µM was 1 to 10.
Taken in the same sequence, the figures for `Cc1cc(NCCN2CC(C)OCC2C)cc(Nc2ncn(-c3cc(F)cc(F)c3)n2)c1` (stereo not shown) [Compound 1003, N1-[1-(3,5-difluorophenyl)-1,2,4-triazol-3-yl]-N3-[2-(2,5-dimethylmorpholin-4-yl)ethyl]-5-methyl-benzene-1,3-diamine] were 10 to 100 and at most 1.
Consider `CC1=NOC(CNc2cc(C)cc(Nc3ncn(-c4cc(F)cc(F)c4)n3)c2)C1` (stereo not shown) [Compound 1004, N1-[1-(3,5-difluorophenyl)-1,2,4-triazol-3-yl]-5-methyl-N3-[(3-methyl-4,5-dihydroisoxazol-5-yl)methyl]benzene-1,3-diamine], for which the fold induction at 1 µM lay in the range of 1 to 10 and the fold induction at 10 µM was in the range of 1 to 10.
For the compound `Cc1cc(Nc2ncn(-c3cc(F)cc(F)c3)n2)cc(N2CCN(CCOC(C)C)CC2)c1` [Compound 1005, 1-(3,5-difluorophenyl)-N-[3-[4-(2-isopropoxyethyl)piperazin-1-yl]-5-methyl-phenyl]-1,2,4-triazol-3-amine], the fold induction at 1 µM was 1 to 10 and the fold induction at 10 µM is at most 1.
